# Reference: US9963461B2, “Phillygenin ibuprofen ester, preparation method therefor, and application thereof” (priority 2014, dated 2018)
# Marks after values point to notes of the source that are not given here.
# Experiments:
# Enterovirus EV71 = test: Impact of the drugs on the virus-induced cytopathy (MTT); type: cell-based; conditions: EV71 100 TCID50, Vero cells, about the maximal non-cytotoxic concentration, 72 hours
# influenza virus = test: as above; type: cell-based; conditions: influenza virus 100 TCID50, Vero cells, about the maximal non-cytotoxic concentration, 72 hours
# [1] = tested on: sweat secretion of rat paw part; test: Sweat secretion of rat paw part (coloring method); type: in vivo, Wistar rats; conditions: 300.0 mg/kg intragastric; for Animal number of sweat points of level +: + = sweat area below about 10%; for Animal number of sweat points of level ++: ++ = sweat area about 11-40%; for Animal number of sweat points of level +++: +++ = sweat area about 41-70%; for Animal number of sweat points of level ++++: ++++ = sweat area over 71%; for Animal number of sweat points of level −: − = no sweat point
# Text: This test was designed to observe the change of sweat secretion based on the mechanism that sweat gland is distributed on the rat paw pads, and iodine and starch can have purple reaction when encountered with sweat. In the test, 350 Wistar rats were selected, with equal male and female number, weighing 120-150 g. […] The rats were placed in a self-made rat fixation bag, with the double hind limbs exposed. The dirts on the right paw was gently scrubbed clean with the cotton swab dipped with anhydrous ethanol. Besides that subcutaneous injection was used for the pilocarpine solution, intragastric administration was used for all the other groups. […] When the test was complete, statistical process was carried out according to the rank-sum test with two-sample comparison, in order to compare the difference between the groups.
# [2] = tested on: mice pain induced by acetic acid; test: Analgesic test, mice writhing induced by acetic acid; type: in vivo, Kunming mice; conditions: 300 mg/kg intragastric; within 15 min after 0.7% acetic acid
# Protocol: 72 Kunming mice were randomly divided into 6 groups, with 12 mice for each group. (1) the blank normal control group (i.e. saline group, […]); (2) positive drug aspirin group (200 mg/kg); (3) ibuprofen group (300 mg/kg); (4) high dose group of phillygenin ibuprofen ester (300 mg/kg); (5) medium dose group of phillygenin ibuprofen ester (150 mg/kg); (6) low dose group of phillygenin ibuprofen ester (75 mg/kg). […] The number of mice writhings within 15 min after administration was recorded. The number of writhings was taken as the evaluation index to evaluate the analgesic effect.
# Adenovirus (AdV) = test: Impact of the drugs on the virus-induced cytopathy (MTT); type: cell-based; conditions: ADV 100 TCID50, Vero cells, about the maximal non-cytotoxic concentration, 72 hours
# [3] = tested on: Herpes Simplex Virus type I (HSV-1); test: as above; type: cell-based; conditions: HSV-I 100 TCID50, Vero cells, about the maximal non-cytotoxic concentration, 72 hours
# [4] = tested on: beer yeast induced rat fever; test: Beer yeast induced rat fever; type: in vivo, Wistar rats; conditions: 300 mg/kg
# Protocol: Male Wistar rats were selected, weighing 180-200 g. Before the test, WSC-411P portable digital thermometer was used to measure the normal rectal temperature twice (with certain interval for each time), and the average value of the two measurements was taken as the normal body temperature of the rat. Then 70 rats with the body temperature between 36.5° C. and 38° C. were chosen to be randomly divided into 7 groups by weight: the model (0.5% carboxymethylcellulose) group, the 2.5, 5, and 10 mg/kg phillygenin ibuprofen ester groups, the positive drug paracetamol (100 mg/kg) group, the ibuprofen group (i.e. prodrug control group, 300 mg/kg), the phillygenin group (100 mg/kg), with 10 rats for each group. Each group of rats were subjected to back subcutaneous injection with 10% fresh beer yeast suspension of 10 ml/kg to induce heat. After administration of 10% fresh beer yeast suspension for 6.0 h, phillygenin ibuprofen ester and paracetamol were both subjected to intragastric administration, and the model group was intragastrically administrated with equal volume of 0.5% carboxymethylcellulose. Rectal temperature was measured after 1 h, 2 h, 3 h and 4 h of the administration respectively. Changes in the body temperature were observed and difference between the groups was compared by inter-group t test processing through antipyretic percentage.
# [5] = tested on: respiratory syncytial virus (RSV); test: Impact of the drugs on the virus-induced cytopathy (MTT); type: cell-based; conditions: RSV 100 TCID50, Vero cells, about the maximal non-cytotoxic concentration, 72 hours
# [6] = after coating B liquid for 1 minute
# [7] = after coating B liquid for 5 minutes
# [8] = after coating B liquid for 10 minutes
# [9] = after coating B liquid for 15 minutes (Table 2-4)
# [10] = after coating B liquid for 15 minutes (Table 2-5)
smiles,measurement,setting,value
CC(C)Cc1ccc(C(C)C(=O)O)cc1 (stereo not drawn) [Ibuprofen],antiviral effective rate (ER %),Enterovirus EV71,75.86** %
same,antiviral effective rate (ER %),influenza virus,75.35** %
same,Animal number of sweat points of level +,[1]; [6],1
same,Animal number of sweat points of level ++,[1]; [6],3
same,Animal number of sweat points of level +++,[1]; [6],1
same,Animal number of sweat points of level ++++,[1]; [6],5
same,Animal number of sweat points of level −,[1]; [6],0
same,Animal number of sweat points of level +,[1]; [7],2
same,Animal number of sweat points of level ++,[1]; [7],1
same,Animal number of sweat points of level +++,[1]; [7],2
same,Animal number of sweat points of level ++++,[1]; [7],5
same,Animal number of sweat points of level −,[1]; [7],0
same,Animal number of sweat points of level +,[1]; [8],1
same,Animal number of sweat points of level ++,[1]; [8],2
same,Animal number of sweat points of level +++,[1]; [8],2
same,Animal number of sweat points of level ++++,[1]; [8],5
same,Animal number of sweat points of level −,[1]; [8],0
same,Animal number of sweat points of level +,[1]; [9],1
same,Animal number of sweat points of level ++,[1]; [9],2
same,Animal number of sweat points of level +++,[1]; [9],2
same,Animal number of sweat points of level ++++,[1]; [9],5
same,Animal number of sweat points of level −,[1]; [9],0
same,Animal number of sweat points of level +,[1]; [10],1
same,Animal number of sweat points of level ++,[1]; [10],2
same,Animal number of sweat points of level +++,[1]; [10],2
same,Animal number of sweat points of level ++++,[1]; [10],5
same,Animal number of sweat points of level −,[1]; [10],0
same,Writhing times,[2],9.7*
same,antiviral effective rate (ER %),Adenovirus (AdV),50.61%
same,antiviral effective rate (ER %),[3],84.30** %
same,Body temperature (° C.),[4]; 1 h after administration,39.21 ± 0.11 °C
same,antipyretic percentage (%),[4]; 1 h after administration,−1.05 ± 0.54 %
same,Body temperature (° C.),[4]; 2 h after administration,38.92 ± 0.35 °C
same,antipyretic percentage (%),[4]; 2 h after administration,−1.7 ± 0.77 %
same,Body temperature (° C.),[4]; 3 h after administration,38.71 ± 0.20 °C
same,antipyretic percentage (%),[4]; 3 h after administration,−2.32 ± 1.41 %
same,Body temperature (° C.),[4]; 4 h after administration,38.49 ± 0.51 °C
same,antipyretic percentage (%),[4]; 4 h after administration,−2.88 ± 1.50 %
same,antiviral effective rate (ER %),[5],80.88** %
